What was measured:
[1] = target: 5-hydroxytryptamine receptor 7 (Homo sapiens, UniProt P34969); assay: biochemical; type: cell-based, CHO-K1
[2] = target: 5-hydroxytryptamine receptor 2A (Homo sapiens, UniProt P28223); assay: biochemical; type: cell-based, CHO-K1
[3] = target: hERG (KCNH2) potassium channel (Homo sapiens, UniProt Q12809); assay: in vitro; details: CHO cells expressing human cloned ERG
[4] = target: 5-hydroxytryptamine receptor 6 (Homo sapiens, UniProt P50406); assay: biochemical
D(2) dopamine receptor = D(2) dopamine receptor (Homo sapiens, UniProt P14416); assay: biochemical
[5] = target: T1, Muscarinic acetylcholine receptor M1 (Homo sapiens) (UniProt P11229); assay: Displacement of [3H]pirenzepine from human recombinant M1 receptor expressed in CHO cells at 1 uM; type: cell-based
T1 sequence (whole entry): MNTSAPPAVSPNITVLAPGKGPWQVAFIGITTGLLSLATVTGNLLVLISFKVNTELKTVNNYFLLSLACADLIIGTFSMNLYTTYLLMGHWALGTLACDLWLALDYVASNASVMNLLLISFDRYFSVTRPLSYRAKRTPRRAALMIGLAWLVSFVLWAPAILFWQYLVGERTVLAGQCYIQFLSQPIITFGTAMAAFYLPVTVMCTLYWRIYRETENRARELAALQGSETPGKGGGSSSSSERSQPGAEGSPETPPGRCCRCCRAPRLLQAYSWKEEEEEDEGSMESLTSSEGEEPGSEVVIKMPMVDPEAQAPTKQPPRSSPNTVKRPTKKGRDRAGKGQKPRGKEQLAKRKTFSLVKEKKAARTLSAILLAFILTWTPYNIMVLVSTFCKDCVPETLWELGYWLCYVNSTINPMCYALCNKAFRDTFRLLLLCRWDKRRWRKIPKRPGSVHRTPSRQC

Chain of D(2) dopamine receptor (P14416 whole entry): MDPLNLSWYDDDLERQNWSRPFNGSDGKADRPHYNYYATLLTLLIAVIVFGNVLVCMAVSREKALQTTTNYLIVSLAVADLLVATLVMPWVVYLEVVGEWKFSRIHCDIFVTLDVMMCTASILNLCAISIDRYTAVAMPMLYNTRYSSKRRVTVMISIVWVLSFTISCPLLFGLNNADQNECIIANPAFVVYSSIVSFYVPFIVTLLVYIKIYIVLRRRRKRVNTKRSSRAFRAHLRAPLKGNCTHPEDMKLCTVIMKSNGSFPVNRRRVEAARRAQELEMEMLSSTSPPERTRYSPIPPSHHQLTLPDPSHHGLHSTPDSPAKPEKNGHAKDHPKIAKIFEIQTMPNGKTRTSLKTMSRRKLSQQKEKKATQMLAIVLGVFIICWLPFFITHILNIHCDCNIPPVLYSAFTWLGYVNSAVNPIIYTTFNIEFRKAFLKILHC
Chain of 5-hydroxytryptamine receptor 6 (P50406 whole entry): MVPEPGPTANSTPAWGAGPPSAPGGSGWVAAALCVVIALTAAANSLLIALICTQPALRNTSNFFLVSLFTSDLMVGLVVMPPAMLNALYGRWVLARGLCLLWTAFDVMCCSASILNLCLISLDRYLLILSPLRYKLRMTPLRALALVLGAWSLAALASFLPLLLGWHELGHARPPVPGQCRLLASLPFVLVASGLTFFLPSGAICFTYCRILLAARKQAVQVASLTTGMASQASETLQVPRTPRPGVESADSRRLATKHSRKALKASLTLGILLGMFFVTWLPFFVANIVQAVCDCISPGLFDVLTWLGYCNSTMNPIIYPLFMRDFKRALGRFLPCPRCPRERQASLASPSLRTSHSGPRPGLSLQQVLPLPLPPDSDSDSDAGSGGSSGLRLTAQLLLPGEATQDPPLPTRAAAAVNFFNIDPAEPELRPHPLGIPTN
Chain of 5-hydroxytryptamine receptor 2A (P28223 whole entry): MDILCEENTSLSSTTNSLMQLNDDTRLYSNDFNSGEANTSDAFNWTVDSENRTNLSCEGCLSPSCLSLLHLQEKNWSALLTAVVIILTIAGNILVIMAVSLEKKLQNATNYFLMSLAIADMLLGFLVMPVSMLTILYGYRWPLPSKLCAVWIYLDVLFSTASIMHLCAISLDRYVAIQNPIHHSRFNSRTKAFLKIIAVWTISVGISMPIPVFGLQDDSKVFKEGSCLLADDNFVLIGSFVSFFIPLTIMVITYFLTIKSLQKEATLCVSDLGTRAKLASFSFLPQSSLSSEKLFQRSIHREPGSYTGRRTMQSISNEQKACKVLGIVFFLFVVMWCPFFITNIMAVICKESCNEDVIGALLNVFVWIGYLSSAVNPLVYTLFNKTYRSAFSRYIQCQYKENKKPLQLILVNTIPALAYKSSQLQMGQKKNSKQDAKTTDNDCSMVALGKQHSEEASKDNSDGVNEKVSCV
Chain of hERG (KCNH2) potassium channel (Q12809 whole entry): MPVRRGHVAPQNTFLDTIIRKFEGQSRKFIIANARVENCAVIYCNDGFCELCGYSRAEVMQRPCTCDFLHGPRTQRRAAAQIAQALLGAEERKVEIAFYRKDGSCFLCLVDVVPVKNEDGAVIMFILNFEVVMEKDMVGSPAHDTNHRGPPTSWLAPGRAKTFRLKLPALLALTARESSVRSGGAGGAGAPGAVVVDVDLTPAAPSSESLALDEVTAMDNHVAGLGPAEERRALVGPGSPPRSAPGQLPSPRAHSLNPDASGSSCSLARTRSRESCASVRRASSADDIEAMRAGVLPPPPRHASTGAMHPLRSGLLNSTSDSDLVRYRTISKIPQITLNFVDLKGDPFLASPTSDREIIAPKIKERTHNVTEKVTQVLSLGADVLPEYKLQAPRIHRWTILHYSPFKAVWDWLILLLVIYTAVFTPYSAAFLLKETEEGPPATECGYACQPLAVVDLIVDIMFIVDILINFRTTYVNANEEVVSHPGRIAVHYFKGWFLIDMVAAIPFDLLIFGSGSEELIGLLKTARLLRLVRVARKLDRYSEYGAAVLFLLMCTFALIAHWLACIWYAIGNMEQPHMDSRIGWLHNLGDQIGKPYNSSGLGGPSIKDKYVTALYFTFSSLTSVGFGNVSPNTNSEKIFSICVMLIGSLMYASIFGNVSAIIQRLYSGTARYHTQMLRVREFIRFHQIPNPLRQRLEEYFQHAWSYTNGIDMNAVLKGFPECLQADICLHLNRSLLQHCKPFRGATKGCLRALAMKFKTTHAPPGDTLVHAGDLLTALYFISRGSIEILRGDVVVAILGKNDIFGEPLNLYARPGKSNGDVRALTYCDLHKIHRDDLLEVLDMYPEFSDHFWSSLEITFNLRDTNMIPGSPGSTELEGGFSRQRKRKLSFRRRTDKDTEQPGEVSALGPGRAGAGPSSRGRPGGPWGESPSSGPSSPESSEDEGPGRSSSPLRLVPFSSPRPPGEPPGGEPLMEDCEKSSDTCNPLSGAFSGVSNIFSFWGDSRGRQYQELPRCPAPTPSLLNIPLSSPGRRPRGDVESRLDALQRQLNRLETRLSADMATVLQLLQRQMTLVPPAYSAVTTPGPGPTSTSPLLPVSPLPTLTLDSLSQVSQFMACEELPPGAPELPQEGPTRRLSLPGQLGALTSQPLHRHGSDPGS
Chain of 5-hydroxytryptamine receptor 7 (P34969 whole entry): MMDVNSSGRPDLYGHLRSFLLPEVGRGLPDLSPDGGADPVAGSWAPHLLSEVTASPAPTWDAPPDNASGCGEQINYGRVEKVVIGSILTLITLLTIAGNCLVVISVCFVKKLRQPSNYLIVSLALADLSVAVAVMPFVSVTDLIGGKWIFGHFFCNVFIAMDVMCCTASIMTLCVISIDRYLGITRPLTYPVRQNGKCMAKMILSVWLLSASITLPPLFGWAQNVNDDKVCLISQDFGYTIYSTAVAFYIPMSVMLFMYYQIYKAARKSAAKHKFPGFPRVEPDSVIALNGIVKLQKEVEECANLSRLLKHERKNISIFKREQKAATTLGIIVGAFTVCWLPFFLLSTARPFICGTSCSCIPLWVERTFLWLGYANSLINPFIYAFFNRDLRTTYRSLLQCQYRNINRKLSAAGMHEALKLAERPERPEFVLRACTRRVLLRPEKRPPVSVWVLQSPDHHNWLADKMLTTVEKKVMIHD

Row | Ki [1] [nM] | Ki [2] [nM] | Ki [4] [nM] | Ki (D(2) dopamine receptor) [nM] | inhibition [5] [%] | SMILES | inhibition at 1 µM [3] [%]
1 | 13 | 8.5 | 70 | 25 | – | O=S(=O)(NCCCCN1CCC(c2noc3cc(F)ccc23)CC1)c1cccc2scnc12 | 69
2 | 9.9 | 6 | 33 | 15 | 0 | O=S(=O)(NCCCCN1CCN(c2nsc3ccccc23)CC1)c1cc2ccccc2s1 | 11
3 | 10 | 4200 | 1500 | 2000 | – | Cc1cccc(S(=O)(=O)NCCCN2CCN(c3noc4ccccc34)CC2)c1 | 8
4 | 14 | 9.5 | 100 | > 1000 | 37 | O=S(=O)(NCCCCN1CCC(c2noc3cc(F)ccc23)CC1)c1cnc2ccccn12 | 47
5 | 150 | 410 | 35 | 15 | 14 | O=S(=O)(NCCCN1CCN(c2noc3ccccc23)CC1)c1cc2ccccc2s1 | 21
6 | 6.9 | 12 | 71 | 27 | 7 | O=S(=O)(NCCCCN1CCN(c2nsc3ccccc23)CC1)c1ccc(Cl)c(Cl)c1 | 45
7 | 25 | 14 | 120 | 8.3 | -8 | Cc1c(S(=O)(=O)NCCCN2CCN(c3nsc4ccccc34)CC2)sc2ccc(F)cc12 | 3
8 | 54 | 9.5 | 110 | – | -6 | O=S(=O)(NCCCN1CCN(c2nsc3ccccc23)CC1)c1cc2ccc(Cl)cc2s1 | 0
9 | 8.8 | 3.8 | 35 | 33 | – | O=S(=O)(NCCCN1CCC(c2noc3cc(F)ccc23)CC1)c1ccc(OC(F)(F)F)cc1 | 87
10 | 6.3 | 9.5 | 130 | > 1000 | 24 | O=S(=O)(NCCCCN1CCC(c2noc3cc(F)ccc23)CC1)c1cccs1 | 53
11 | 34 | 2.6 | 44 | 27 | -8 | O=S(=O)(NCCCN1CCC(c2noc3cc(F)ccc23)CC1)c1cc2ccc(Cl)cc2s1 | 20
12 | 13 | 11 | 63 | 48 | – | O=S(=O)(NCCCN1CCN(c2nsc3ccccc23)CC1)c1cc2ccccc2s1 | 12
13 | 23 | 9.1 | 140 | 56 | – | O=S(=O)(NCCCN1CCN(c2nsc3ccccc23)CC1)c1cccs1 | 33
14 | 20 | 25 | 15 | 7.8 | – | O=S(=O)(NCCCN1CCN(c2nsc3ccccc23)CC1)c1ccc(Cl)c(Cl)c1 | 21
15 | 57 | 6100 | > 10000 | 170 | – | O=S(=O)(NCCCCN1CCN(c2noc3ccccc23)CC1)c1cccc2scnc12 | 26
16 | 1.5 | 2.1 | 140 | 17 | 11 | Cc1cccc(S(=O)(=O)NCCCCN2CCC(c3noc4cc(F)ccc34)CC2)c1 | 57
17 | 41 | 3300 | > 10000 | > 10000 | -2 | O=S(=O)(NCCCN1CCN(c2noc3ccccc23)CC1)c1cccc2scnc12 | 17
18 | 94 | 970 | > 10000 | – | 4 | O=S(=O)(NCCCN1CCN(c2noc3ccccc23)CC1)c1cccs1 | 18
19 | 2 | 8.4 | 27 | 27 | 0 | O=S(=O)(NCCCN1CCN(c2nsc3ccccc23)CC1)c1cccc2scnc12 | 16
20 | 6.3 | 12 | 84 | 26 | 2 | O=S(=O)(NCCCN1CCN(c2nsc3ccccc23)CC1)c1cnc2ccccn12 | 6
21 | 4.4 | 9 | 48 | 26 | 18 | O=S(=O)(NCCCCN1CCC(c2noc3cc(F)ccc23)CC1)c1ccc(F)c(Cl)c1 | 90

Row | Ki [1] [nM] | Ki [2] [nM] | Ki [4] [nM] | Ki (D(2) dopamine receptor) [nM] | inhibition [5] [%] | SMILES | inhibition at 1 µM [3] [%]
22 | 4.1 | 0.9 | 40 | 11 | 13 | O=S(=O)(NCCCN1CCC(c2noc3cc(F)ccc23)CC1)c1cc2ccccc2s1 | 34
23 | 2500 | > 10000 | 2300 | > 10000 | 3 | O=S(=O)(NCCCN1CCN(c2noc3ccccc23)CC1)c1ccc2cc(Cl)ccc2c1 | 14
24 | 270 | 210 | 4800 | 400 | – | O=S(=O)(NCCCCN1CCN(c2noc3ccccc23)CC1)c1ccc(OC(F)(F)F)cc1 | 24
25 | 5.9 | 13 | 95 | 100 | 0 | O=S(=O)(NCCCCN1CCN(c2noc3ccccc23)CC1)c1cnc2ccccn12 | 13
26 | 1.1 | 26 | 87 | 44 | -3 | Cc1cccc(S(=O)(=O)NCCCCN2CCN(c3noc4ccccc34)CC2)c1 | 27
27 | 5.1 | 11 | 46 | 54 | -1 | O=S(=O)(NCCCCN1CCN(c2noc3ccccc23)CC1)c1cc2ccc(Cl)cc2s1 | 15
28 | 9.9 | 98 | 330 | > 10000 | 2 | O=S(=O)(NCCCN1CCN(c2noc3ccccc23)CC1)c1ccc(F)c(Cl)c1 | 33
29 | 900 | 63 | 560 | 30 | 6 | O=S(=O)(NCCCN1CCN(c2noc3ccccc23)CC1)c1cc2ccc(Cl)cc2s1 | 7
30 | 0.4 | 1.8 | 133 | 5.2 | -2 | O=S(=O)(NCCN1CCC(c2noc3cc(F)ccc23)CC1)c1ccc2ccccc2c1 | 21
31 | 380 | 950 | 2200 | 63 | 3 | O=S(=O)(NCCCN1CCN(c2noc3ccccc23)CC1)c1ccc(OC(F)(F)F)cc1 | 10
32 | 9.5 | 14 | 5.1 | 37 | – | O=S(=O)(NCCCN1CCN(c2nsc3ccccc23)CC1)c1ccc(F)c(Cl)c1 | 36
33 | 3.8 | 8.8 | 430 | 43 | – | Cc1cccc(S(=O)(=O)NCCN2CCN(c3nsc4ccccc34)CC2)c1 | 4
34 | 29 | 9.5 | 56 | 27 | – | O=S(=O)(NCCCN1CCN(c2nsc3ccccc23)CC1)c1ccc(OC(F)(F)F)cc1 | 50
35 | 0.7 | 10 | 29 | 57 | – | O=S(=O)(NCCCCN1CCN(c2noc3ccccc23)CC1)c1ccc(Cl)c(Cl)c1 | 24
36 | 1.5 | 0.9 | 680 | 18 | – | O=S(=O)(NCCN1CCN(c2nsc3ccccc23)CC1)c1ccc2ccccc2c1 | 0
37 | 19 | 2.2 | 47 | 48 | – | O=S(=O)(NCCCCN1CCN(c2nsc3ccccc23)CC1)c1ccc(OC(F)(F)F)cc1 | 20
38 | 1.7 | 1.3 | 22 | 13 | – | Cc1cccc(S(=O)(=O)NCCCN2CCN(c3nsc4ccccc34)CC2)c1 | 14
39 | 6.7 | 7.7 | 18 | 51 | – | O=S(=O)(NCCCCN1CCN(c2noc3ccccc23)CC1)c1ccc2cc(Cl)ccc2c1 | 9
40 | 0.9 | 5.1 | 66 | 8.7 | – | O=S(=O)(NCCCN1CCC(c2noc3cc(F)ccc23)CC1)c1cccs1 | 53
41 | 200 | 1200 | > 10000 | > 10000 | – | Cc1c(S(=O)(=O)NCCCN2CCN(c3noc4ccccc34)CC2)sc2ccc(F)cc12 | 15
42 | 33 | 8.1 | 61 | 49 | – | O=S(=O)(NCCCCN1CCN(c2nsc3ccccc23)CC1)c1ccc2cc(Cl)ccc2c1 | 12

Source: ChEMBL document CHEMBL3286108, “Novel arylsulfonamide derivatives with 5-HT₆/5-HT₇ receptor antagonism targeting behavioral and psychological symptoms of dementia” (J Med Chem, 2014)
